Data as given in US6756480B2, “Modulators of receptors for parathyroid hormone and parathyroid hormone-related protein” (Amgen Inc., priority 2000, dated 2004).

Assays:
Type in all cases: in vivo
mice = experiment: Chronic hypercalcemia induced by PTH-(1-34)-Fc challenge, antagonist given SC; settings: 30 mg/kg single SC, 24 h post challenge, vehicle-treated normal mice (normal control 1.35); the values are: blood ionized calcium
Experimental: Normal male mice were challenged once by SC injection with PTH-(1-34)-Fc (30 mg/kg) (open circles), or with vehicle (PBS, open squares). Some PTH-(1-34)-Fc-challenged mice were treated once, at the time of challenge, with [Asn10,Leu11]PTHrP-(7-34)-Fc at 10 (closed triangle), 30 (closed circle), or 100 mg/kg (closed square). […] Data represent means±SEM, n=5 mice/group.
In order to test the ability of [Asn10,Leu11]PTHrP-(7-34)-Fc to antagonize more chronic hypercalcemia, we used PTH-(1-34)-Fc as a long-acting calcemic agent. This study also represents a model for primary and secondary hyperparathyroidism, diseases which are characterized by persistent elevation of PTH levels. In vehicle-treated mice, a single SC injection of PTH-(1-34)-Fc (30 mg/kg) caused a robust hypercalcemic response in normal mice, reaching a level of 2.75 mg/dl at 24 h post challenge (vs. normal control value of 1.35).

male BDF1 mice = experiment: Monotherapy in adult mice: twice-weekly PTH-(1-34)-Fc versus daily PTH-(1-34), tibial BMD by pQCT
Experimental: Daily PTH [PTH-(1-34)] was given at 80 μg/kg/day (20 nmol/kg/day).
Briefly, male BDF1 mice (4 months of age) were treated twice per week by subcutaneous injection with various doses of PTH-(1-34)-Fc or with vehicle (PBS). Other mice were treated daily with SC injections of PTH-(1-34) at a dose of 80 μg/kg/day (20 nmol/kg/day), a treatment regimen which is optimal for increasing bone mass in rodents (M. Gunness-Hey and J. M. Hock, Metab. Bone Dis. & Rel. Res. 5:177-181, 1984). After 3 weeks, mice were sacrificed and tibiae were analyzed for bone mineral density (BMD) via pQCT (FIG. 10).

OVX cynomolgus monkeys = experiment: Single subcutaneous injection into OVX cynomolgus monkeys, serum total calcium
Experimental: Monkeys were injected with PTH-(1-34)-Fc at doses of 1-30 μg/kg (n=1/group) or 100-1000 μg/kg (n=2/group). Serum was analyzed for total calcium. The dotted line indicates the threshold for hypercalcemia, based on an elevation of calcium greater than three standard deviations above the normal mean, on two or more consecutive timepoints.
The optimal dosing of primates may be less frequent compared to rats or mice. Weekly (or less frequent) dosing may be optimal in primates, based on the observation that the hypercalcemic response of OVX cynomolgus monkeys to a single subcutaneous injection of PTH-(1-34)-Fc (10-34 nmol/kg) persisted for about 168 hours (FIG. 11).

[1] = 3 weeks, PTH-(1-34) daily 80 μg/kg/day, PTH-(1-34)-Fc twice weekly, various doses
[2] = two highest doses, 50 and 150 nmol/kg twice weekly

**Q.** Which level reached in hypercalcemic response (mice) does the source give for “PTH-(1-34)-Fc: human PTH-(1-34), SVSEIQLMHNLGKHLNSMERVEWLRKKLQDVHNF, linked at its C-terminus to an Fc domain” here?
**A.** 2.75 mM

**Q.** And the “cancellous BMD compared to vehicle” value (male BDF1 mice; [1])?
**A.** dose-dependent increases

**Q.** What about the “total tibial BMD compared to vehicle” value (male BDF1 mice; [1]) of the same substance?
**A.** dose-dependent increases

**Q.** And the “cortical BMD in the tibia” value (male BDF1 mice; 3 weeks, PTH-(1-34) daily, PTH-(1-34)-Fc twice weekly, various doses)?
**A.** dose-dependent increase

**Q.** What about the “bone density and bone volume compared to daily PTH-(1-34)” value (male BDF1 mice; adult mice, twice weekly dosing) of the same substance?
**A.** greater increases in bone density and bone volume

**Q.** What about the “cortical BMD versus vehicle or daily PTH-(1-34)” value (male BDF1 mice; highest dose twice weekly, p<0.05) of the same substance?
**A.** significantly greater

**Q.** And the “cancellous BMD versus vehicle or daily PTH-(1-34)” value (male BDF1 mice; [2])?
**A.** significantly greater

**Q.** What about the “total BMD versus vehicle or daily PTH-(1-34)” value (male BDF1 mice; [2]) of the same substance?
**A.** significantly greater

**Q.** What about the “time within which a single subcutaneous dose is cleared” value (OVX cynomolgus monkeys; primates, inferred from calcemic response) of the same substance?
**A.** ≤ 1 week

**Q.** And the “persistence of hypercalcemic response” value (OVX cynomolgus monkeys; single subcutaneous injection 10-34 nmol/kg)?
**A.** about 168 hours
